Experimental data from US20110226998A1, “ELECTROWETTING ELEMENTS” (LIQUAVISTA B.V., priority 2008, published 2011).

Test: Photo-bleaching test according to standard IEC 60068-2-9, Atlas Suntest CPS/XLS+ instrument, reflectance measurement
Type: physicochemical
Settings: sample thickness 4 micrometres, 1 centimetre diameter, 0.1M in decane; exposure 0, 4, 24, 48, 120 and 240 hours
Description: Exemplary dye compounds will now be described below, including a schematic illustration of each dye. Whilst exemplary anthraquinone dyes are given below, it is to be appreciated that corresponding napthoquinone dyes are envisaged also within the scope of the present invention, namely including napthoquinones having the same molecular structure of the right hand (as illustrated herein) benzene ring as the molecular structure of the right hand (as illustrated herein) benzene ring of the anthrquinone examples described below. The stereochemistry of each dye is not limited to that shown; it is to be appreciated that molecular structures of the dyes having different stereochemistry are within the scope of the dyes of the invention. […] For each of the exemplary dyes, data is given as evidence of their reduced photo-bleaching properties. […] The periods of time given for testing are scalable to equate to a number of weeks of exposing the tested dyes to solar radiation. For example, the period of exposure of 240 hours given below approximately equates to continuously exposing the dyes to solar radiation in London, UK, for 14 weeks, taking an average yearly solar radiation quantity as 1,000 kWh/m^2/year. In reality, taking into account that a display application is not used or is used inside for a major part of the time, this equates to a few years of practical lifetime.
(§1) This dye is cyan in colour. Upon testing, a sample of the dye with a thickness of 4 micrometres, a circular area of 1 centimetre diameter and a concentration of 0.1M in decane, was measured for reflectance of radiation with wavelengths from 380 to 750 nano-metres, at 5 nano-metre increments. This test was run separately for different time periods, namely for 0, 4, 24, 48, 120 and 240 hours. The reflectance of the dye for the range of wavelengths tested was approximately the same for each different testing time period.
as §1, with “purple” for “cyan”, “48, and” for “48,”, “120” for “120 and 240”
as §1, with “magenta” for “cyan”
as §1, with “blue” for “cyan”, “48, and” for “48,”, “120” for “120 and 240”
as §1, with “blue/cyan” for “cyan”, “48, and” for “48,”, “120” for “120 and 240”
In the case of `CCCCC(CC)CNc1ccc(NCC(CC)CCCC)c2c1C(=O)c1ccccc1C2=O` (stereo not drawn) [Example 1], the “photo-bleaching (reflectance of radiation, 380 to 750 nano-metres, compared over testing time periods)” value was “does not exhibit photo-bleaching”. In the case of `CCCCC(CC)Cc1cc(NC2CCCCC2)c2c(c1NC1CCCCC1)C(=O)c1ccccc1C2=O` (stereo not drawn) [Example 3], the “photo-bleaching (reflectance of radiation, 380 to 750 nano-metres, compared over testing time periods)” value was “does not exhibit photo-bleaching”. With `CCCCCCCc1cc(NC2CCCCC2)c2c(c1NC1CCCCC1)C(=O)c1ccccc1C2=O` [Example 4] the “photo-bleaching (reflectance of radiation, 380 to 750 nano-metres, compared over testing time periods)” value was “does not exhibit photo-bleaching”.

Same assay, conditions: sample thickness 4 micrometres, 1 centimetre diameter, 0.1M in decane; exposure 0, 4, 24, 48, and 120 hours
With `CCCCC(CC)CNc1cc(CC(CC)CCCC)c(O)c2c1C(=O)c1ccccc1C2=O` (stereo not drawn) [Example 2] the “photo-bleaching (reflectance of radiation, 380 to 750 nano-metres, compared over testing time periods)” value was “does not exhibit photo-bleaching”. With `CCCCC(CC)CNc1cc(CC(CC)CCCC)c(N)c2c1C(=O)c1ccccc1C2=O` (stereo not drawn) [Example 5] the “photo-bleaching (reflectance of radiation, 380 to 750 nano-metres, compared over testing time periods)” value was “does not exhibit photo-bleaching”. With `CCCCC(CC)CNc1cc2c(c3c1C(=O)c1ccccc1C3=O)NC1CC(C)CCC1C2(C)C` (stereo not drawn) [Example 6] the “photo-bleaching (reflectance of radiation, 380 to 750 nano-metres, compared over testing time periods)” value was “does not exhibit photo-bleaching”.
